Patent US20260000632A1, “STRUCTURALLY MODIFIED FATTY ACIDS FOR IMPROVING GLYCEMIC CONTROL AND TREATING INFLAMMATORY BOWEL DISEASE” (Northsea Therapeutics B.V., priority 2018, published 2026)
Read-outs that look alike come from different tables or passages of the source.

What was measured:
active GLP-1 = test: Active GLP-1 during oral glucose tolerance test (OGTT) and at 24 h in lean male SPD rats; assay type: in vivo, rat
Method: (§1) To establish the acute effects of oral administration of Compound A and Compound B upon active GLP-1 and insulin concentrations, lean (about 300 g) male Sprague-Dawley (SPD) rats were divided into groups (n=6-8) and fed 74 and 84 mg/kg body weight of Compound A or Compound B respectively, either with or without concurrent administration of a dipeptidyl peptidase 4 (DPP-4) inhibitor 60 minutes prior to an oral glucose tolerance test (OGTT) as outlined below. Parallel groups receiving either corn oil alone (corn oil+vehicle, n=10) or corn oil and a DPP-4 inhibitor (“DPP-4 i”) (corn oil+ (DPP-4 i), n=10) were included as controls. The DPP-4 inhibitor was linagliptin.
(§2) A second oral dose of 74 and 84 mg/kg bodyweight of Compound A or Compound B respectively was administered at 240 minutes and ad lib feeding was initiated. A second dose of DPP-4 inhibitor was administered at 480 mins prior to lights out. Blood samples were collected at 24 h for measurement of active GLP-1 and insulin. All values are mean, figures depict mean values (SEM).

ob/ob mice [1] = test: Chronic treatment in ob/ob mice: basal parameters after 4 weeks; assay type: in vivo, mouse; details: 4 weeks diet admix, 4 h fast, Compound A 135, fenofibrate 100, pioglitazone 30 mg/kg bw/d, mean ± SEM; for Plasma adiponectin: control 4.3 ± 0.4; for Blood HbA1c: control 8.4 ± 0.4; for HOMA-IR: control 65.7 ± 9.8; for Plasma insulin: control 73.2 ± 13.6; for Plasma ALT: control 271.4 ± 18.8; for Blood glucose: control 380.8 ± 26.3
Method: (§3) Mice were fed a standard low-fat (7% w/w fat) diet. After 4-weeks, the mice were fasted for 4 hours and the effects of Compound A were assessed. Assessment of the effects of Compound A included basal levels of blood glucose, plasma insulin, HbA1c levels, and homeostatic model assessment of insulin resistance (HOMA-IR). HOMA-IR is an assessment of insulin resistance and is calculated by the following formula: fasting insulin (micro U/L)×fasting glucose […]/22.5.

ob/ob mice [2] = test: Oral glucose (2 g/kg) tolerance test after 5 weeks treatment in ob/ob mice; assay type: in vivo, mouse; details: for Plasma glucose AUC (0-120 min) / Plasma glucose, 0 min / Plasma glucose, 15 min / Plasma glucose, 30 min / Plasma glucose, 45 min / Plasma glucose, 60 min / Plasma glucose, 120 min: OGTT 2 g/kg, mean
Method: as §3
After 5 weeks, an oral glucose (2 g/kg) tolerance test was performed after a 4 hour fast.

GLP-1 = details: direct colonic delivery, rodents; cited from earlier work
plasma insulin = test: Plasma insulin at 24 h in lean male SPD rats; assay type: in vivo, rat; details: Compound A 74 mg/kg or Compound B 84 mg/kg oral, non-significant
Method: as §1, §2

ob/ob mice [3] = test: Glucose tolerance after 21-day treatment in high-fat diet fed ob/ob mice; assay type: in vivo, mouse; details: 112 mg/kg once-daily via diet, 21 days
Method: This study was carried out to assess the effects of chronic treatment with Compound B or Compound A on glucose tolerance in a T2DM rodent model.
For assessing the effects of Compound A, ob/ob mice were fed a high-fat diet (comprising 2% cholesterol, 40% fat (containing 18% trans-fatty acids), 20% fructose) for 15 weeks starting at age 5 weeks. […] After 21 days the mice received a 2 g/kg oral glucose load. After the oral glucose load, plasma glucose was measured at multiple time points from 0-240 minutes.

atherogenic lipids [4] = details: humans; cited from earlier work
atherogenic lipids [5] = details: APOE*3.CETP mice; cited from earlier work
[6] = reference drugs: fenofibrate 100, pioglitazone 30 mg/kg bw/d diet admix 5 weeks
[7] = 15 mg/kg bw/d diet admix 5 weeks
[8] = 45 mg/kg bw/d diet admix 5 weeks
[9] = 135 mg/kg bw/d diet admix 5 weeks

## CC#CCn1c(N2CCC[C@@H](N)C2)nc2c1c(=O)n(Cc1nc(C)c3ccccc3n1)c(=O)n2C [DPP4 inhibitor, linagliptin, reference compound]
Active GLP-1; corn oil+DPP4 inhibitor alone
  Effect on active GLP-1 concentration at 24 h: no significant effect
Active GLP-1; corn oil+DPP4 inhibitor alone, OGTT
  Effect on active GLP-1 (AUC 0-60 mins) versus corn oil alone: no significant effect

## CC(C)OC(=O)C(C)(C)Oc1ccc(C(=O)c2ccc(Cl)cc2)cc1 [Fenofibrate, fenofibrate, reference compound]
ob/ob mice [1]
  Plasma adiponectin: 5.0 ± 0.4 µg/mL
  Blood HbA1c: 4.8 ± 0.2 %
  HOMA-IR: 20.3 ± 5.9
  Plasma insulin: 35.5 ± 9.0 ng/mL
  Plasma ALT: 224.0 ± 27.4 U/L
  Blood glucose: 220.3 ± 8.1 mg/dL
ob/ob mice [2]; [6]
  Plasma glucose AUC (0-120 min): 1420 mM·min
  Plasma glucose, 0 min: 15.4 mM
  Plasma glucose, 15 min: 35.9 mM
  Plasma glucose, 30 min: 35.9 mM
  Plasma glucose, 45 min: 30.6 mM
  Plasma glucose, 60 min: 28.2 mM

## CC/C=C\C/C=C\C/C=C\C/C=C\C/C=C\C/C=C\CCC(=O)O [DHA]
GLP-1
  GLP-1 secretion: able to induce GLP-1 secretion

## CCc1ccc(CCOc2ccc(CC3SC(=O)NC3=O)cc2)nc1 (centres unmarked) [Pioglitazone, pioglitazone, reference compound]
ob/ob mice [1]
  Blood HbA1c: 3.8 ± 0.1 %
  HOMA-IR: 2.1 ± 0.3
  Plasma insulin: 5.7 ± 0.8 ng/mL
  Plasma ALT: 257.3 ± 15.5 U/L
  Blood glucose: 147.5 ± 3.1 mg/dL
ob/ob mice [2]; [6]
  Plasma glucose AUC (0-120 min): 879 mM·min
  Plasma glucose, 0 min: 7.8 mM
  Plasma glucose, 15 min: 24.2 mM
  Plasma glucose, 30 min: 18.5 mM
  Plasma glucose, 45 min: 17.3 mM
  Plasma glucose, 60 min: 15.2 mM
  Plasma glucose, 120 min: 10.9 mM

## CC/C=C\C/C=C\C/C=C\C/C=C\C/C=C\CCCCOC(CC)C(=O)O (centres unmarked) [Compound A, 2-(((5Z,8Z,11Z,14Z,17Z)-icosa-5,8,11,14,17-pentaen-1-yl)oxy)butanoic acid]
Active GLP-1; in combination with DPP4 inhibitor, Compound A 74 mg/kg or Compound B 84 mg/kg oral, two doses
  Effect on active GLP-1 concentration at 24 h versus corn oil+vehicle: significantly (p<0.05) increased
Plasma insulin; compound alone
  Increase in plasma insulin concentration at 24 h versus corn oil+vehicle and corn oil+DPP4 inhibitor: 25%
Plasma insulin; in combination with DPP4 inhibitor
  Increase in plasma insulin concentration at 24 h versus corn oil+vehicle and corn oil+DPP4 inhibitor: 25%
ob/ob mice [3]
  Glucose tolerance from 15 minutes through 90 minutes post-glucose load compared to vehicle: significantly improved glucose tolerance
ob/ob mice [3]; p<0.01
  AUC glucose: significantly reduced AUC glucose
ob/ob mice [1]
  Plasma adiponectin: 3.8 ± 0.4 µg/mL
  Blood HbA1c: 4.5 ± 0.1 %
  HOMA-IR: 8.6 ± 3.6
  Plasma insulin: 17.6 ± 6.8 ng/mL
  Plasma ALT: 180.6 ± 14.6 U/L
  Blood glucose: 191.5 ± 6.1 mg/dL
ob/ob mice [2]; [7]
  Plasma glucose AUC (0-120 min): 1760 mM·min
  Plasma glucose, 0 min: 11.4 mM
  Plasma glucose, 15 min: 37.5 mM
  Plasma glucose, 30 min: 34.4 mM
  Plasma glucose, 45 min: 28.0 mM
  Plasma glucose, 60 min: 25.5 mM
  Plasma glucose, 120 min: 19.6 mM
ob/ob mice [2]; [8]
  Plasma glucose AUC (0-120 min): 1110 mM·min
  Plasma glucose, 0 min: 13.3 mM
  Plasma glucose, 15 min: 36.5 mM
  Plasma glucose, 30 min: 30.1 mM
  Plasma glucose, 45 min: 24.5 mM
  Plasma glucose, 60 min: 21.0 mM
  Plasma glucose, 120 min: 15.3 mM
ob/ob mice [2]; [9]
  Plasma glucose AUC (0-120 min): 816 mM·min
  Plasma glucose, 0 min: 9.2 mM
  Plasma glucose, 15 min: 27.7 mM
  Plasma glucose, 30 min: 22.1 mM
  Plasma glucose, 45 min: 14.6 mM
  Plasma glucose, 60 min: 13.4 mM
  Plasma glucose, 120 min: 12.8 mM
ob/ob mice [2]; 15, 45, 135 mg/kg bw/d diet admix 5 weeks
  Lowering of glucose levels in oral glucose tolerance test: dose-dependent response in lowering glucose levels
Atherogenic lipids [4]
  Effect on atherogenic lipids: significantly reduce atherogenic lipids
Atherogenic lipids [5]
  Effect on atherogenic lipids: significantly reduce atherogenic lipids
